Experimental findings from US20240156854A1, “METHYLCOBALAMIN OPHTHALMIC PREPARATION AND USE THEREOF” (EYE INSTITUTE OF SHANDONG FIRST MEDICAL UNIVERSITY, priority 2022, published 2024) are described below.

The test system of assay [1] is Mouse model of neurotrophic keratitis. As to the kind of experiment: Slit lamp photography of the eye in mouse model of neurotrophic keratitis. In kind it is in vivo, C57BL/6 mice. The note with it: day 7, slit lamp; eye drops 4 times a day or subconjunctival hydrogel implant (about 0.02 mg). As to the method: (§1) (1) C57BL/6 mice, 6 to 8 weeks old, male, weighing 20 g to 25 g, were purchased from Beijing Vital River Laboratory Animal Technology Co., Ltd. Animal breeding was conducted in the Animal Laboratory of the Eye Institute of Shandong First Medical University. The temperature was controlled at 22±2° C., the humidity was controlled at 60±10%, a light and dark cycle was 12 h, and food and drink were given ad libitum.
(2) Experimental grouping: 30 of 6- to 8-week-old C57BL/6 male mice (body weight 20 g to 25 g) were randomly divided into 5 groups, 6 in each group, respectively: • 1. A control group • 2. An eye drop group with the control methylcobalamin ophthalmic drop Comparative Example 1 • 3. An eye drop group with a recombinant human nerve growth factor • 4. An eye drop group with methylcobalamin+proanthocyanidin (Example 1) • 5. A subconjunctival implantation group with a methylcobalamin hydrogel (Example 2)
The mice were intraperitoneally anesthetized with a 0.6% pentobarbital sodium solution (1 ml/100 g), fixed on an operating table in a lateral position, and the bulbar conjunctiva was incised 90 degrees along the temporal corneoscleral limbus with Vannas scissors. The retroorbital venous plexus should not be damaged. […]

Assay [2] has the same test system. In words: Confocal laser microscope imaging of corneal nerves (β-tubulin III staining) in mouse model of neurotrophic keratitis. In kind it is in vivo, C57BL/6 mice. Particulars: 14 d after the operation. As to the method:
as §1
(2) Experimental grouping: 30 of 6- to 8-week-old C57BL/6 male mice (body weight 20 g to 25 g) were randomly divided into 5 groups, 6 in each group, respectively: • 1. A control group • 2. An eye drop group with the control methylcobalamin ophthalmic drop Comparative Example 1 • 3. An eye drop group with a recombinant human nerve growth factor • 4. An eye drop group with methylcobalamin+proanthocyanidin (Example 1) • 5. A subconjunctival implantation group with a methylcobalamin hydrogel (Example 2) […]
Samples were taken 14 d after the operation. […] The cornea was washed 6 times with PBS, 10 min each time, the corneal epithelium was spread upward, and sealed with DAPI-containing anti-fluorescence quenching buffered glycerin, stored in the dark, and then imaged with a confocal laser microscope.

Take “recombinant human nerve growth factor: recombinant human nerve growth factor eye drops, comparator group”: the corneal neovascularization entry in assay [1] was “not obvious”. Also, the “regeneration of corneal nerve endings” value in assay [2] is “regenerated”.
